From ChEMBL document CHEMBL5335778, “Bench-to-bedside: Innovation of small molecule anti-SARS-CoV-2 drugs in China” (Eur J Med Chem, 2023)

Columns and labels:
Assay type in all cases: functional, organism-based
SARS-CoV-2 [1] = experiment: Antiviral activity against SARS-CoV-2 variant Omicron BA.2 infected in African green monkey Vero E6 cells assessed as reduction in virus-induced cytopathic effect; details: Severe acute respiratory syndrome coronavirus 2, Omicron BA.2, Vero C1008
SARS-CoV-2 [2] = experiment: Antiviral activity against SARS-CoV-2 Omicron BA1 variant infected in human A549-ACE2 cells assessed as reduction in viral load measured upto 4 days by viral plaque assay; details: Severe acute respiratory syndrome coronavirus 2, A549-ACE2, 96 h
SARS-CoV-2 [3] = experiment: Antiviral activity against SARS-CoV-2 Omicron BA1 variant infected human A549-ACE2 cells assessed as inhibition of viral replication; details: Severe acute respiratory syndrome coronavirus 2, Omicron BA1, A549-ACE2

SMILES | EC50 (SARS-CoV-2 [1]) | also measured
C[C@H](OC(C)(C)C)[C@H](NC(=O)OCc1ccccc1)C(=O)N[C@@H](CC1CCCCC1)C(=O)N[C@H](C=O)C[C@@H]1CCNC1=O | 21.7 nM | 
CC(C)C[C@H](NC(=O)OCc1ccccc1)C(=O)N[C@@H](C[C@@H]1CCNC1=O)C(O)S(=O)(=O)O (some centres undefined) | 21.7 nM | 
N#Cc1ccccc1-c1cc(-c2cc(Cl)cc(OCC3CC3)c2)c(=O)n(-c2cccnc2)c1 | 17.1 nM | 
CC(C)(C)OC(=O)Nc1cccn([C@@H](CC2CC2)C(=O)N[C@@H](C[C@@H]2CCNC2=O)C(=O)C(=O)NCc2ccccc2)c1=O | 17.1 nM | 
C[C@H](NC(=O)[C@@H](c1cccnc1)N(C(=O)C(Cl)Cl)c1ccc(-c2ccccc2)cc1)c1ccccc1 | 21.7 nM | 
CC(C)C[C@H](NC(=O)c1cc2c(F)cccc2[nH]1)C(=O)NN(C[C@@H]1CCNC1=O)C(=O)[C@@H](F)Cl | 17.1 nM | 
COc1cccc2[nH]c(C(=O)N[C@@H](CC(C)C)C(=O)N[C@@H](C[C@@H]3CCCNC3=O)C(=O)COC(=O)c3c(C(F)(F)F)cccc3C(F)(F)F)cc12 | 21.7 nM | 
C[C@H](NC(=O)[C@@H](c1cccnc1)N(C(=O)c1ccco1)c1ccc(-c2ccccc2)cc1)c1ccccc1 | 21.7 nM | 
CSc1ccc2c(c1)NC(=O)C(F)(F)C2=O | 17.1 nM | 
O=C1N(c2cncc3ccccc23)CNC12CC(c1ccccc1Cl)C2 (centres undefined) | 17.1 nM | 
CC(C)C[C@H](NC(=O)OCC1C[C@H]2CCC[C@@H](C1)C2)C(=O)N[C@H](C=O)C[C@@H]1CCNC1=O (some centres undefined) | 21.7 nM | 
COc1ccc2cc1Oc1ccc(cc1)C[C@H]1c3c(cc4c(c3Oc3cc5c(cc3OC)CCN(C)[C@@H]5C2)OCO4)CCN1C [CEPHARANTHINE] |  | EC50 (SARS-CoV-2 [2]): 100 nM
Br.[2H]c1cc([C@]2(C#N)O[C@H](COC(=O)C(C)C)[C@@H](OC(=O)C(C)C)[C@H]2OC(=O)C(C)C)n2ncnc(N)c12 [DEUREMIDEVIR HYDROBROMIDE] |  | EC50 (SARS-CoV-2 [3]): 300 nM
COc1cccc2[nH]c(C(=O)N[C@@H](CC(C)C)C(=O)N[C@@H](C[C@@H]3CCNC3=O)C(=O)CO)cc12 [PF-00835231] | 21.7 nM | 
